In PubChem BioAssay (NCI):
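Grown in 96-well plates, cells were treated for 48 hours with each compound at five concentrations. Insufficient inhibition: endpoint recorded as highest concentration tested. The concentration for 50% growth inhibition is given as GI50. TGI is the concentration that stops growth completely.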

What was measured:
Assay in all cases: NCI anticancer screen, dose series, 48 h
[1] = system: ACHN renal
[2] = system: DU-145 prostate
[3] = system: HCT-15 colon
[4] = system: HT29 colon
[5] = system: MALME-3M melanoma
[6] = system: MDA-MB-231 breast
[7] = system: NCI-H226 lung
[8] = system: OVCAR-3 ovarian
[9] = system: T-47D breast
[10] = system: UO-31 renal

For `CC([C@H]1CCC2C3CCC4C[C@@H](N)CC[C@]4(C)C3CC[C@@]21C)N(C)C` (stereo not given in full), the GI50 [1] was 8.99 µM, the TGI [1] was 21.6 µM and the GI50 [2] was 14.3 µM. The TGI [2] was > 48.4 µM, the GI50 [3] was 1590 nM and the TGI [3] was 4.72 µM. It also gave a GI50 [4] of 1.29 µM, a TGI [4] of 5.59 µM and a GI50 [5] of 1.88 µM. For the same molecule, the TGI [5] was 5.11 µM, the GI50 [6] was 5.72 µM and the TGI [6] was 16.5 µM. The GI50 [7] was 12.4 µM, the TGI [7] was > 45.9 µM and the GI50 [8] was 6.96 µM. It also gave a TGI [8] of 21.2 µM, a GI50 [9] of 3.23 µM and a TGI [9] of 17.9 µM. For the same molecule, the GI50 [10] was 2.34 µM and the TGI [10] was 7.74 µM.
`C=C(CO)[C@@H]1CC[C@]2(COC3CCCCO3)CC[C@]3(C)[C@H](CC[C@@H]4[C@@]5(C)C=C(C=O)C(=O)C(C)(C)[C@@H]5CC[C@]43C)[C@@H]12` (stereo not given in full) showed a GI50 [1] of 0.21 µM, a TGI [1] of 0.488 µM and a GI50 [2] of 0.523 µM. The TGI [2] was 1.72 µM, the GI50 [3] was 247 nM and the TGI [3] was 0.718 µM. The GI50 [4] was 0.327 µM, the TGI [4] was 1.1 µM and the GI50 [5] was 0.222 µM. The TGI [5] was 0.544 µM, the GI50 [6] was 0.214 µM and the TGI [6] was 0.565 µM. For the same molecule, the GI50 [7] was 0.538 µM, the TGI [7] was 1.47 µM and the GI50 [8] was 0.207 µM. For the same molecule, the TGI [8] was 0.428 µM, the GI50 [9] was 0.332 µM and the TGI [9] was 1.65 µM. The GI50 [10] was 0.187 µM and the TGI [10] was 0.433 µM.
For `CN(CC(=O)Nc1nc2ccccc2[nH]1)S(=O)(=O)c1ccc(Cl)cc1`, the GI50 [1] was > 100 µM, the TGI [1] was > 100 µM and the GI50 [2] was > 100 µM. The TGI [2] was > 100 µM, the GI50 [3] was > 100000 nM and the TGI [3] was > 100 µM. The GI50 [4] was > 100 µM, the TGI [4] was > 100 µM and the GI50 [5] was > 100 µM. The TGI [5] was > 100 µM, the GI50 [6] was > 100 µM and the TGI [6] was > 100 µM. The GI50 [7] was > 100 µM, the TGI [7] was > 100 µM and the GI50 [8] was > 100 µM. The TGI [8] was > 100 µM, the GI50 [9] was > 100 µM and the TGI [9] was > 100 µM. The GI50 [10] was > 100 µM and the TGI [10] was > 100 µM.
For `OCCNc1nc(Nc2ccc(Cl)c(Cl)c2)nc2ccccc12`, the GI50 [1] was 4.8 µM, the TGI [1] was 18.3 µM and the GI50 [2] was 11 µM. For the same molecule, the TGI [2] was 22.9 µM, the GI50 [3] was 2840 nM and the TGI [3] was 9.34 µM. It also gave a GI50 [4] of 3.39 µM, a TGI [4] of 12.1 µM and a GI50 [5] of 4.97 µM. For the same molecule, the TGI [5] was 17.5 µM, the GI50 [6] was 1.97 µM and the TGI [6] was 5.4 µM. For the same molecule, the GI50 [7] was 12.9 µM, the TGI [7] was 34.2 µM and the GI50 [8] was 7.51 µM. The TGI [8] was 19.9 µM, the GI50 [9] was 9.65 µM and the TGI [9] was 25.9 µM. The GI50 [10] was 4.23 µM and the TGI [10] was 17.9 µM.
With `Cc1ccc(C(=O)/C(=C\c2ccc([N+](=O)[O-])cc2)S(=O)Cc2ccc(Cl)cc2)cc1` (stereo not given) the GI50 [1] was 2.09 µM, the TGI [1] was 4.98 µM and the GI50 [2] was 1.75 µM. For the same molecule, the TGI [2] was 3.21 µM, the GI50 [3] was 1610 nM and the TGI [3] was 3.75 µM. For the same molecule, the GI50 [4] was 1.88 µM, the TGI [4] was 4.3 µM and the GI50 [5] was 1.74 µM. The TGI [5] was 3.64 µM, the GI50 [6] was 1.86 µM and the TGI [6] was 3.88 µM. For the same molecule, the GI50 [7] was 2.81 µM, the TGI [7] was 11.5 µM and the GI50 [8] was 1.7 µM. For the same molecule, the TGI [8] was 3.14 µM, the GI50 [9] was 1.51 µM and the TGI [9] was 3.37 µM. It also gave a GI50 [10] of 1.41 µM and a TGI [10] of 2.78 µM.
With `CC1(N)CCN(c2cnc(-c3cccc(Cl)c3Cl)c(N)n2)CC1` the GI50 [1] was 10.9 µM, the TGI [1] was > 100 µM and the GI50 [2] was 56.5 µM. The TGI [2] was > 100 µM, the GI50 [3] was 28300 nM and the TGI [3] was > 100 µM. For the same molecule, the GI50 [4] was 26.7 µM, the TGI [4] was > 100 µM and the GI50 [5] was 16.4 µM. It also gave a TGI [5] of 32.1 µM, a GI50 [6] of 18.2 µM and a TGI [6] of 48.7 µM. The GI50 [7] was 3.2 µM, the TGI [7] was > 100 µM and the GI50 [8] was 35.1 µM. For the same molecule, the TGI [8] was > 100 µM, the GI50 [9] was 17.3 µM and the TGI [9] was 68.4 µM. The GI50 [10] was 3.3 µM and the TGI [10] was 17.9 µM.
In the case of `CO/N=C(\COc1ccc2oc(-c3ccccc3)cc(=O)c2c1)c1ccc(OC)cc1`, the GI50 [1] is reported as 23.4 µM, the TGI [1] is reported as 51.9 µM and the GI50 [2] is reported as 31 µM. The TGI [2] was > 100 µM, the GI50 [3] was 30200 nM and the TGI [3] was > 100 µM. The GI50 [4] was 19.7 µM, the TGI [4] was 48.6 µM and the GI50 [5] was 24.8 µM. It also gave a TGI [5] of 63.8 µM, a GI50 [6] of 22 µM and a TGI [6] of 45.2 µM. The GI50 [7] was 50.1 µM, the TGI [7] was > 100 µM and the GI50 [8] was 22.7 µM. For the same molecule, the TGI [8] was 71 µM, the GI50 [9] was 22.8 µM and the TGI [9] was 63.8 µM. It also gave a GI50 [10] of 22.8 µM and a TGI [10] of 58.5 µM.
Work on `COc1ccc2c(c1)C(=O)/C(=C/c1ccc([N+](=O)[O-])o1)O2` yielded a GI50 [1] of 0.758 µM, a TGI [1] of 2.02 µM and a GI50 [2] of 2.05 µM. The TGI [2] was 3.97 µM, the GI50 [3] was 613 nM and the TGI [3] was 2.14 µM. For the same molecule, the GI50 [4] was 0.954 µM, the TGI [4] was 2.74 µM and the GI50 [5] was 1.61 µM. The TGI [5] was 3.48 µM, the GI50 [6] was 1.41 µM and the TGI [6] was 3.17 µM. It also gave a GI50 [7] of 1.78 µM, a TGI [7] of 5.83 µM and a GI50 [8] of 0.878 µM. It also gave a TGI [8] of 2.22 µM, a GI50 [9] of 0.77 µM and a TGI [9] of 2.59 µM. The GI50 [10] was 0.796 µM and the TGI [10] was 2.46 µM.
With `O=C(NO)[C@@H](Cc1ccccc1)NS(=O)(=O)c1ccc(-c2ccccc2)cc1` the GI50 [1] was 12.2 µM, the TGI [1] was > 25 µM and the GI50 [2] was 11.1 µM. For the same molecule, the TGI [2] was > 25 µM, the GI50 [3] was > 25000 nM and the TGI [3] was > 25 µM. For the same molecule, the GI50 [4] was > 25 µM, the TGI [4] was > 25 µM and the GI50 [5] was > 25 µM. For the same molecule, the TGI [5] was > 25 µM, the GI50 [6] was > 25 µM and the TGI [6] was > 25 µM. The GI50 [7] was > 25 µM, the TGI [7] was > 25 µM and the GI50 [8] was 13.6 µM. For the same molecule, the TGI [8] was > 25 µM, the GI50 [9] was > 25 µM and the TGI [9] was > 25 µM. For the same molecule, the GI50 [10] was 13.2 µM and the TGI [10] was > 25 µM.
`CC1=C(C(=O)Nc2cc(Cl)c3[nH]ncc3c2)C(c2ccc(C(F)(F)F)cc2)CC(=O)N1` (stereo not given) was tested, and the GI50 [1] was > 25 µM, the TGI [1] was > 25 µM and the GI50 [2] was > 25 µM. The TGI [2] was > 25 µM, the GI50 [3] was > 25000 nM and the TGI [3] was > 25 µM. For the same molecule, the GI50 [4] was > 25 µM, the TGI [4] was > 25 µM and the GI50 [5] was 13.1 µM. For the same molecule, the TGI [5] was > 25 µM, the GI50 [6] was 13.7 µM and the TGI [6] was > 25 µM. For the same molecule, the GI50 [7] was 2.11 µM, the TGI [7] was > 25 µM and the GI50 [8] was > 25 µM. For the same molecule, the TGI [8] was > 25 µM, the GI50 [9] was > 12.8 µM and the TGI [9] was > 25 µM. For the same molecule, the GI50 [10] was 2 µM and the TGI [10] was > 25 µM.
`CSC(=S)OC1CC(n2cnc3c(NC(=O)c4ccccc4)ncnc32)OC1CO[Si](C)(C)C(C)(C)C` (stereo not given) was tested, and the TGI [1] was > 56.2 µM, the TGI [2] was 42.6 µM and the TGI [3] was > 56.2 µM. The TGI [4] was > 56.2 µM, the TGI [5] was 51.9 µM and the TGI [6] was > 46.4 µM. The TGI [7] was > 56.2 µM, the TGI [8] was 34.4 µM and the TGI [9] was > 56.2 µM. It also gave a TGI [10] of 28 µM.
In the case of `CCN(CC)C(=S)SCN1C(=O)c2ccccc2S1(=O)=O`, the GI50 [1] is reported as 64.6 µM, the TGI [1] is reported as > 100 µM and the GI50 [2] is reported as 29.4 µM. For the same molecule, the TGI [2] was > 100 µM, the GI50 [3] was 50900 nM and the TGI [3] was > 100 µM. The GI50 [4] was 25.1 µM, the TGI [4] was > 74.9 µM and the GI50 [5] was > 48.7 µM. The TGI [5] was 97.6 µM, the GI50 [6] was 50.9 µM and the TGI [6] was > 100 µM. The GI50 [7] was 65.5 µM, the TGI [7] was > 100 µM and the GI50 [8] was 34.3 µM. The TGI [8] was > 100 µM, the GI50 [9] was 36 µM and the TGI [9] was > 100 µM. The GI50 [10] was 53.9 µM and the TGI [10] was > 100 µM.
